The NIST ThermoML archive (doi:10.1021/je500917k)
Numbers after ± are expanded uncertainties.

Legend:
[1] = xn = mol fraction of the nth substance listed; conditions: 100 kPa, Liquid; for speed of sound: Frequency=2 MHz
[2] = 100 kPa, Liquid; for speed of sound: Frequency=2 MHz

CCN1CCCC1=O [1-ethyl-2-pyrrolidinone] + CCNCCO
[1], x1 = 1
Conditions	mass density [kg/m3]	speed of sound [m/s]	viscosity [mPa·s]
293.15 K	997.71 ± 0.94	1512.1 ± 3.4	2.117 ± 0.053
303.15 K	989.14 ± 0.94	1474.2 ± 3.4	1.771 ± 0.045
313.15 K	980.56 ± 0.94	1436 ± 3.4	1.518 ± 0.039
323.15 K	971.96 ± 0.94	1398.5 ± 3.4	1.299 ± 0.034

CNCCO [2-(methylamino)ethanol]
[2]
Conditions	mass density [kg/m3]	speed of sound [m/s]	viscosity [mPa·s]
293.15 K	941.79 ± 0.54	1486.5 ± 2.9	13.42 ± 0.25
303.15 K	934.02 ± 0.54	1454.6 ± 2.9	8.58 ± 0.17
313.15 K	926.18 ± 0.55	1422.7 ± 2.9	5.869 ± 0.12
323.15 K	918.25 ± 0.55	1390.9 ± 2.9	4.096 ± 0.092

CCN1CCCC1=O [1-ethyl-2-pyrrolidinone]
[2]
Conditions	mass density [kg/m3]	speed of sound [m/s]	viscosity [mPa·s]
293.15 K	997.71 ± 0.94	1512.1 ± 3.4	2.117 ± 0.053
303.15 K	989.14 ± 0.94	1474.2 ± 3.4	1.771 ± 0.045
313.15 K	980.56 ± 0.94	1436 ± 3.4	1.518 ± 0.039
323.15 K	971.96 ± 0.94	1398.5 ± 3.4	1.299 ± 0.034

CCNCCO [2-(ethylamino)ethanol]
[2]
Conditions	mass density [kg/m3]	speed of sound [m/s]	viscosity [mPa·s]
293.15 K	917.79 ± 0.55	1442.4 ± 2.9	15.28 ± 0.28
303.15 K	909.82 ± 0.56	1408.3 ± 2.9	9.59 ± 0.19
313.15 K	901.79 ± 0.57	1374.5 ± 2.9	6.406 ± 0.13
323.15 K	893.68 ± 0.57	1340.9 ± 2.9	4.527 ± 0.1

CNCCO [2-(methylamino)ethanol] + CCN1CCCC1=O
[1], x2 = 0
Conditions	mass density [kg/m3]	speed of sound [m/s]	viscosity [mPa·s]
293.15 K	941.79 ± 0.54	1486.5 ± 2.9	13.42 ± 0.25
303.15 K	934.02 ± 0.54	1454.6 ± 2.9	8.58 ± 0.17
313.15 K	926.18 ± 0.55	1422.7 ± 2.9	5.869 ± 0.12
323.15 K	918.25 ± 0.55	1390.9 ± 2.9	4.096 ± 0.092
